Data reported in US6608086B2, “Dihydropyridines and new uses thereof” (Synaptic Pharmaceutical Corporation, priority 1993, dated 2003).
Where two headings read alike, the source gives them in different places.

What was measured:
[1] = target: T1, α1C Human Adrenergic Receptor (Homo sapiens, UniProt P35348); assay: Radioligand binding, [3H]prazosin, cloned human α1C adrenergic receptor
T1 construct: The entire coding region of α1C (1401 bp); expressed in transfected cells
T1 sequence (P35348 1-466): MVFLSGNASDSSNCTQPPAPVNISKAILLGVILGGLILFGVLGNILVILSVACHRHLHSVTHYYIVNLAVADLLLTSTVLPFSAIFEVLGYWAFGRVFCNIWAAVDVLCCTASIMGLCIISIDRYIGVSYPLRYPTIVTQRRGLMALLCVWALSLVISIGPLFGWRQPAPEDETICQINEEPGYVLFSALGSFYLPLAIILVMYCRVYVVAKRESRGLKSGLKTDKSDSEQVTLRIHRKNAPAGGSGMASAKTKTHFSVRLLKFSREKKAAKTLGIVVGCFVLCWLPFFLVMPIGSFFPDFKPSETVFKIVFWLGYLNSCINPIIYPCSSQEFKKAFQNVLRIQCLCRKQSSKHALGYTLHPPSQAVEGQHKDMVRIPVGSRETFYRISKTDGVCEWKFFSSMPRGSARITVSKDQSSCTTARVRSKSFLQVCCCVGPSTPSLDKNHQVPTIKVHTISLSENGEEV
In short: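 Read-out is filter-retained [3H]prazosin (0.5 nM) bound to membranes of LM(tk−) cells stably carrying the human α1C receptor. Incubation ran 20 min at 37° C. at pH 7.5, with 10 μM phentolamine marking nonspecific binding.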

[2] = target: T2, L-type calcium channel (Rattus norvegicus, UniProt P22002); assay: Competition binding of [3H]nitrendipine to membrane fragments of rat cardiac muscle
T2 construct: membrane fragments of rat cardiac muscle; from tissue; host or cells: rat cardiac muscle membranes
T2 sequence (P22002 whole entry, other chains not shown, the tested form may be a part): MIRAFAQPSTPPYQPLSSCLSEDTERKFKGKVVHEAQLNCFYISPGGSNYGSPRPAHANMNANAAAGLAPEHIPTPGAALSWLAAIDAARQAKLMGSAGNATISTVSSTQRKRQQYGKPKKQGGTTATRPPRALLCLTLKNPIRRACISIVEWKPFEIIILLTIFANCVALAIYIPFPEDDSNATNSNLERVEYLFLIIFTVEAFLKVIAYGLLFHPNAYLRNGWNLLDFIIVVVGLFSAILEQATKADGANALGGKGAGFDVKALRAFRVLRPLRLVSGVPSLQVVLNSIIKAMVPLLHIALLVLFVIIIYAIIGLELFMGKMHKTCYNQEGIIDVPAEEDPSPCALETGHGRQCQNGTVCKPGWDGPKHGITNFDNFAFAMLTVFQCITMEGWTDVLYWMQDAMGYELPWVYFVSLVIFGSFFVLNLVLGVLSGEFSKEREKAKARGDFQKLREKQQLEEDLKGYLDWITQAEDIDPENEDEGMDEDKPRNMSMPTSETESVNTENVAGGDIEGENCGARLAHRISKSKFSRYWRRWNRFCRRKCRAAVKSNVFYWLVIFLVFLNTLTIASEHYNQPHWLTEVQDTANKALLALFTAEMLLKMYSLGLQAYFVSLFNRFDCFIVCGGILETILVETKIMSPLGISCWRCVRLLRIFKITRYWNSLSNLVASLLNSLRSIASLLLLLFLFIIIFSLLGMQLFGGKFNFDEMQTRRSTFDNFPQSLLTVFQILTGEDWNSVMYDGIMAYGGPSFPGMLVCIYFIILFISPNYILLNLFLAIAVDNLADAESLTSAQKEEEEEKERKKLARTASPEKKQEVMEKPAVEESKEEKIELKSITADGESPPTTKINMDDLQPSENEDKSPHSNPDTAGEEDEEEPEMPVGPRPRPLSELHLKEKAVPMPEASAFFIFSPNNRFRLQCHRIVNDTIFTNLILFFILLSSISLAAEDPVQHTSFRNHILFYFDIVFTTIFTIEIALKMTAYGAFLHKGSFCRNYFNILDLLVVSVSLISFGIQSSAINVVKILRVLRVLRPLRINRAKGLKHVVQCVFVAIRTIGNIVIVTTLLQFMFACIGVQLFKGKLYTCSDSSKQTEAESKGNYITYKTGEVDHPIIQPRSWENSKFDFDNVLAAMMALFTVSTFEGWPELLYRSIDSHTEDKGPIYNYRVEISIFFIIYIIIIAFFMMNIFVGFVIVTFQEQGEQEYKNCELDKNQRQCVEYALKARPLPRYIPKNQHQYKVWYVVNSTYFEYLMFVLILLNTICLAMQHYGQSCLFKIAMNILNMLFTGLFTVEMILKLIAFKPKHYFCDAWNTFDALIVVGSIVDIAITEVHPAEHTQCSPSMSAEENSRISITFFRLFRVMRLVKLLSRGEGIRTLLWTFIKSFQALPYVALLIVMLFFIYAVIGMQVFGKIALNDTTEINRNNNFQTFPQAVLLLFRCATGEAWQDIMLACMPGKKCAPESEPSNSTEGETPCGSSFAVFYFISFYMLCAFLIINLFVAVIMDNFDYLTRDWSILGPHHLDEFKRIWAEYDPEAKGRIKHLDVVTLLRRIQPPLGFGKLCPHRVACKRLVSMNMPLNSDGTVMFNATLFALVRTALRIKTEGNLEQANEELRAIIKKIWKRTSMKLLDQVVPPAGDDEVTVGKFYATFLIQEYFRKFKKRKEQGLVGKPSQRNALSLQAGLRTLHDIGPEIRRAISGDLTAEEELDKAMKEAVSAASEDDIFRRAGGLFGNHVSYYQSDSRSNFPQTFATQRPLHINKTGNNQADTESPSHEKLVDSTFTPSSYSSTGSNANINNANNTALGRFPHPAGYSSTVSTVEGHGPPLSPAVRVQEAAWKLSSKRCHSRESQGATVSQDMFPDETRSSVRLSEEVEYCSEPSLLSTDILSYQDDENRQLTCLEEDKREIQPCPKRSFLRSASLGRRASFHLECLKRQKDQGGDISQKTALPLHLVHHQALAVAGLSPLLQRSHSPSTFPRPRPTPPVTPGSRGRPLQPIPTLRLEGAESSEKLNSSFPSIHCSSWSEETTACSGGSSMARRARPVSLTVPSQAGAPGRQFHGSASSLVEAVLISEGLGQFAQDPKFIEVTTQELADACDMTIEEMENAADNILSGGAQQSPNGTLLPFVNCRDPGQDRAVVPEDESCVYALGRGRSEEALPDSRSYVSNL
T2 sequence (P54290 25-944 partner limits assumed, other chains not shown): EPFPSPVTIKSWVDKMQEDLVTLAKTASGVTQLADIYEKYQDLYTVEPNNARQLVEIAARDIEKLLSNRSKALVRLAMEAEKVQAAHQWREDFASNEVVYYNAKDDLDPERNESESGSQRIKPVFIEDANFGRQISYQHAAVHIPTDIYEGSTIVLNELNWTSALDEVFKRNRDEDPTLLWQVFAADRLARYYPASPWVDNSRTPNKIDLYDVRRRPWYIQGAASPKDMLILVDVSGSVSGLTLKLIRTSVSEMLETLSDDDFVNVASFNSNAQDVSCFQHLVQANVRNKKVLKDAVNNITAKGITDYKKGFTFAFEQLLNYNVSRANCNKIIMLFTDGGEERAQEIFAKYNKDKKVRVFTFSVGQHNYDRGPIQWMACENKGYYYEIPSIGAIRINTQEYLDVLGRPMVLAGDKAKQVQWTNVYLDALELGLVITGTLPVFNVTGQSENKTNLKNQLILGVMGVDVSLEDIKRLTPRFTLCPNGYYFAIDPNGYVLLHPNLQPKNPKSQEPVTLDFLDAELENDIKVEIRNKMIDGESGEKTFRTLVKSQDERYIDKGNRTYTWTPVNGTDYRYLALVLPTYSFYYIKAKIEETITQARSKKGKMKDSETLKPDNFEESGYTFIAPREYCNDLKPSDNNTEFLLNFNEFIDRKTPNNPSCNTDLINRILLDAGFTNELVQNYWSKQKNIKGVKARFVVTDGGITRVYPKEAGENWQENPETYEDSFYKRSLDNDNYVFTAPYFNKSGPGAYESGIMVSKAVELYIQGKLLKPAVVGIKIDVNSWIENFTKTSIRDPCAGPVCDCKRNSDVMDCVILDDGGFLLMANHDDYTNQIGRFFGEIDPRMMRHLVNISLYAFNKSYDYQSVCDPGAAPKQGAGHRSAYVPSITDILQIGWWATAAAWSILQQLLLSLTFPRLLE
T2 sequence (P54290 945-1091 partner limits assumed, other chains not shown): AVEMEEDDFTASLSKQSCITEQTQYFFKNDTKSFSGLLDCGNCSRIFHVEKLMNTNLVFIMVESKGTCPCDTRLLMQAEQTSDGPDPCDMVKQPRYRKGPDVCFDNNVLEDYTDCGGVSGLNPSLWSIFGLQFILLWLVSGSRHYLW

[3] = target: T3, α2A receptor (Homo sapiens, UniProt P08913); assay: Competition binding, [3H]rauwolscine, human α2A receptor
T3 construct: host or cells: LM(tk-) cells, line L-α2A
T3 sequence (P08913 1-465): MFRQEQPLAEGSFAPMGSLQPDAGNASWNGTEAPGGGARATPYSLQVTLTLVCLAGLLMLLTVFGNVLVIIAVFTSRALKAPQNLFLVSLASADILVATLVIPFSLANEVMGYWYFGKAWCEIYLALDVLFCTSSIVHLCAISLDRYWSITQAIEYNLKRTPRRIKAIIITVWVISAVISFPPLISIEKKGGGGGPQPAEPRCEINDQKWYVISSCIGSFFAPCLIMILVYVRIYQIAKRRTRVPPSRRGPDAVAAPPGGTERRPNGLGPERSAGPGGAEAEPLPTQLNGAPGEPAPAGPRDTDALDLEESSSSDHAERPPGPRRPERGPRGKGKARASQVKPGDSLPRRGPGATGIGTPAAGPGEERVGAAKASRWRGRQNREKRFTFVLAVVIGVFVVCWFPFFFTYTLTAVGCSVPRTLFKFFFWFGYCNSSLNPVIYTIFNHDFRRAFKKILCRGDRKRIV
In short: (§1)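 Equilibrium displacement of [3H]rauwolscine (0.5 nM) measured on membranes from stably transfected LM(tk−) lines, one per α2 subtype, in glycylglycine buffer at pH 7.6. Nonspecific binding set by 10 μM phentolamine; separation by filtration.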

[4] = target: T4, α2C receptor (Homo sapiens, UniProt P18825); assay: Competition binding, [3H]rauwolscine, human α2C receptor
T4 construct: host or cells: LM(tk-) cells, line L-α2C
T4 sequence (P18825 1-462): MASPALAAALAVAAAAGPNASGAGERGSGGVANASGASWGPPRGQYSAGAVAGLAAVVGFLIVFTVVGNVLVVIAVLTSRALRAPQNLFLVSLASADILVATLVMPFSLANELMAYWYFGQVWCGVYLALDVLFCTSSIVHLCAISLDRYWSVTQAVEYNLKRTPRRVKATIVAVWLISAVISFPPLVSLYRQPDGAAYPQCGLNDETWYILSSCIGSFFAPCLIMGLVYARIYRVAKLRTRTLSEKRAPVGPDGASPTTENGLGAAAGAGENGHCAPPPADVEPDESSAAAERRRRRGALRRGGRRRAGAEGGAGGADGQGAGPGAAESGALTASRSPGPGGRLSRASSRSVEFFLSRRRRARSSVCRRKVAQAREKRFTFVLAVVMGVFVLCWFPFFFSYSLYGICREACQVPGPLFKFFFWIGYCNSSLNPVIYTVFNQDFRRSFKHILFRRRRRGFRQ
In short: as §1

[5] = cloned human receptor in LM(tk-) cell membranes, SEM and n in lines below, read-out: pKi alpha-1 1c (converted)
[6] = [3H]nitrendipine, rat cardiac muscle membranes, SEM and n in lines below, read-out: pKi Ca (converted)
[7] = [3H]rauwolscine, LM(tk-) cell line L-α2A, SEM and n in lines below, read-out: pKi alpha-2 2a (converted)
[8] = [3H]rauwolscine, LM(tk-) cell line L-α2C, SEM and n in lines below, read-out: pKi alpha-2 2c (converted)
[9] = cloned human receptor, LM(tk-) cell membranes, mean, read-out: PKi alpha-1 1c (converted)
[10] = [3H]nitrendipine, rat cardiac muscle membranes, mean, read-out: PKi Ca (converted)
[11] = [3H]rauwolscine, human receptor, LM(tk-) cell lysates, mean, read-out: PKi alpha-2 2a (converted)
[12] = [3H]rauwolscine, human receptor, LM(tk-) cell lysates, mean, read-out: PKi alpha-2 2c (converted)

| Ki [1, 5] [nM] | Ki [2, 6] [nM] | Ki [3, 7] [nM] | Ki [4, 8] [nM] | Structure (SMILES) | melting point | Ki [1, 9] [nM] | Ki ([2]; PKi Ca) [nM] | Ki [3] [nM] | Ki ([4]; PKi alpha-2 2c) [nM] | further results |
| --- | --- | --- | --- | --- | --- | --- | --- | --- | --- | --- |
| 3.02 | 95.5 | 117 | 49 | COC(=O)C1=C(C)NC(C)=C(C(=O)NCCCN2CCC(c3ccccc3)CC2)C1c1cccc([N+](=O)[O-])c1 (centres unmarked) [Example 30, 1,4-Dihydro-3-methoxycarbonyl-2,6-dimethyl-4-(3-nitrophenyl)-5-(N-(3-(4-phenylpiperidin-1-yl)propyl)carboxamido)pyridine] | 78 to 80 °C |  |  |  |  |  |
| 2.75 | 158000 | 5.5 | 67.6 | CC1=C(C(N)=O)C(c2ccc([N+](=O)[O-])cc2)C(C(=O)NCCCN2CCC(c3ccccc3)CC2)=C(C)N1 (centres unmarked) [Example 60, 5-Carboxamido-1,4-dihydro-2,6-dimethyl-4-(4-nitrophenyl)-3-{N-[3-(4-phenylpiperidin-1-yl)propyl]}carboxamidopyridine] | 100 to 105 °C |  |  |  |  |  |
| 2.63 | 19500 | 24.5 | 49 | CC1=C(C(N)=O)C(c2cccc([N+](=O)[O-])c2)C(C(=O)NCCCN2CCC(c3ccccc3)CC2)=C(C)N1 (centres unmarked) [Example 62] | 92 to 96 °C |  |  |  |  |  |
| 38.9 | 66100 | 955 | 170 | CC1=C(C(=O)NCCCN2CCC(c3ccccc3)CC2)C(c2ccc([N+](=O)[O-])cc2)c2c([nH]c(=O)[nH]c2=O)N1 (centres unmarked) [Example 63, 1,4-Dihydro-6-methyl-4-(4-nitrophenyl)-5-{N-[3-(4-phenylpiperidin-1-yl)propyl]}carboxamido-[2,3, d]uracilylpyridine] | 202 to 205 °C |  |  |  |  |  |
|  |  |  |  | CCC1=C(C(N)=O)C(c2ccc([N+](=O)[O-])cc2)C(C(=O)NCCCN2CCC(c3ccccc3)CC2)=C(CC)N1 (centres unmarked) [Example 121, 5-Carboxamido-2,6-diethyl-1,4-dihydro-4-(4-nitrophenyl)-3-{N-[3-(4-phenylpiperidin-1-yl)propyl]}carboxamidopyridine] | 90 to 101 °C |  |  |  |  | Ki ([1]; cloned human α1C receptor, LM(tk−) cell membranes, read-out: pKi alpha-1 1c (converted)): 1.32 nM; Ki ([2]; [3H]nitrendipine, rat cardiac muscle membrane fragments, L-type calcium channel, read-out: pKi Ca (converted)): 16600 nM; Ki ([3]; [3H]rauwolscine, human α2A receptor, LM(tk−) cells, read-out: pKi alpha-2 2a (converted)): 363 nM; Ki ([4]; [3H]rauwolscine, human α2C receptor, LM(tk−) cells, read-out: pKi alpha-2 2c (converted)): 191 nM |
|  |  |  |  | CCC1=C(C(N)=O)C(c2ccc([N+](=O)[O-])cc2)C(C(=O)NCCCN2CCC(C(=O)OC)(c3ccccc3)CC2)=C(CCCCN)N1 (centres unmarked) [Example 166, 2-(4-Aminobutyl)-5-carboxamido-6-ethyl-1,4-dihydro-3-{N-[3-(4-methoxycarbonyl-4-phenylpiperidin-1-yl)propyl]}carboxamido-4-(4-nitrophenyl)pyridine] | 75 to 78 °C | 1.29 |  |  |  | Ki [2, 10]: 132000 nM; Ki [3, 11]: 1860 nM; Ki [4, 12]: 1020 nM |
|  |  |  |  | COC(=O)C1=C(C)NC(CCCCN)=C(C(=O)NCCCN2CCC(c3ccccc3)(c3ccccc3)CC2)C1c1ccc([N+](=O)[O-])cc1 (centres unmarked) [Example 170, 2-(4-Aminobutyl)-1,4-dihydro-5-methoxycarbonyl-6-methyl-4-(4-nitrophenyl)-3-{N-[3-(4,4-diphenylpiperidin-1-yl)propyl]}carboxamidopyridine] | 89 to 93 °C | 1.26 | 2400 | 6170 | 4900 |  |
|  |  |  |  | CCC1=C(C(N)=O)C(c2ccc([N+](=O)[O-])cc2)C(C(=O)NCCCN2CCC(c3ccccc3)(c3ccccc3)CC2)=C(CCCCN)N1 (centres unmarked) [Example 171, 2-(4-Aminobutyl)-5-carboxamido-6-ethyl-1,4-dihydro-4-(4-nitrophenyl)-3-{N-[3-(4,4-diphenylpiperidin-1-yl)propyl]}carboxamidopyridine] | 85 to 89 °C |  |  |  |  | Ki ([1]; PKi alpha-1 1c, cloned human receptor, LM(tk-) cell membranes, mean): 1.74 nM; Ki [2, 10]: 18600 nM; Ki [3, 11]: 1100 nM; Ki [4, 12]: 575 nM |
|  |  |  |  | COC(=O)C1(c2ccccc2)CCN(CCCNC(=O)C2=C(CCCCN)NC(C)=C(C(N)=O)C2c2ccc([N+](=O)[O-])cc2)CC1 (centres unmarked) [Example 177, 2-(4-Aminobutyl)-5-carboxamido-1,4-dihydro-3-{N-[3-(4-methoxycarbonyl-4-phenylpiperidin-1-yl)propyl]}carboxamido-6-methyl-4-(4-nitrophenyl)pyridine] | 81 to 84 °C | 4.68 | 93300 | 1660 | 832 |  |
|  |  |  |  | CCNC(=O)C1=C(CC)NC(CC)=C(C(=O)NCCCN2CCC(C(=O)OCC)(c3ccccc3)CC2)C1c1ccc([N+](=O)[O-])cc1 (centres unmarked) [Example 182, 2,6-Diethyl-1,4-dihydro-3-{N-[3-(4-ethoxycarbonyl-4-phenylpiperidin-1-yl)propyl]}carboxamido-5-(N-ethyl)carboxamido-4(4-nitrophenyl)pyridine] | 103 to 104 °C | 2.24 | 355000 | 2190 | 1150 |  |
|  |  |  |  | CCOC(=O)C1(c2ccccc2)CCN(CCCNC(=O)C2=C(COCCN)NC(CC)=C(C(=O)OC)C2c2ccc([N+](=O)[O-])cc2)CC1 (centres unmarked) [Example 197, 2-[(2-Aminoethoxy)methyl]-3-{N-[3-(4-ethoxycarbonyl-4-phenylpiperidin-1-yl)propyl]}carboxamido-1,4-dihydro-6-ethyl-5-methoxycarbonyl-4-(4-nitrophenyl) pyridine] | 45 to 47 °C | 0.55 | 6310 | 1480 | 513 |  |
|  |  |  |  | CC1=C(C(N)=O)C(c2ccc([N+](=O)[O-])cc2)C(C(=O)NCCCN2CCC(C(=O)O)(c3ccccc3)CC2)=C(C)N1 (centres unmarked) [Example 210, 5-Carboxamido-3-{N-[3-(4-carboxy-4-phenylpiperidin-1-yl)propyl]}carboxamido-1,4-dihydro-2,6-dimethyl-4-(4-nitrophenyl)pyridine] | 208 to 210 °C | 93.3 | 933 | 11000 | 21900 |  |
|  |  |  |  | CCC1=C(C(=O)NC)C(c2ccc([N+](=O)[O-])cc2)C(C(=O)NCCCN2CCC(c3ccccc3)(c3ccccc3)CC2)=C(COCCN)N1 (centres unmarked) [Example 225, 2-((2-Aminoethyl)oxy)methyl-6-ethyl-1,4-dihydro-5-N-methylcarboxamido-4-(4-nitro)phenyl-3-(3-(N-(4,4-diphenylpiperidin-1-yl)propyl))carboxamidopyridine] | 115 °C (dec.) | 3.98 | 2570 | 2040 | 417 |  |
